# Reference: US5905149A, “Substituted quinolymethylen-oxindole analogues as tyrosine kinase inhibitors” (Pharmacia & Upjohn S.p.A, priority 1996, dated 1999)
# Key:
# [1] = test system: K562 cells, a human myelogenous leukemia cell line; assay: K562 cell growth inhibition assay; type: cell-based; conditions: 72 h, cell counting vs untreated control cells
# Experimental: K562 cell growth inhibition assay
# K562 cells, a human myelogenous leukemia cell line, were seeded into a 24 wells tissue culture plate (Falcon 3047) (10000/well) in the presence of increasing concentrations of the compounds. After 72 h, cells were harvested and were counted using a cell counter (Coulter Counter-ZM). The percent of inhibition was evaluated in respect to the untreated control cells.
# [2] = target: p45 v-abl tyrosine kinase; assay: p45 v-abl kinase assay; type: biochemical, Abelson murine leukemia virus; conditions: (Val^5)-angiotensin II phosphorylation; peptide 2 mM, ATP 50 μM; pH 8.0; 30° C.; triplicate; read-out: Inhibition of p45 v-abl kinase, IC50
# Experimental: p45 v-abl kinase purification
# The enzyme used in our tests is the p45 v-abl tyrosine kinase which represents the catalytic domain of the Abelson tyrosine kinase (isolated from the Abelson murine leukemia virus). The p45 v-abl kinase is produced and isolated as described by Wang et al. in J.Biol.Chem. 260, 64 (1985) and by Ferguson et al. in J. Biol. Chem. 260, 3652 (1985) and in Biochem. J. 257, 321 (1989).
# (Val^5)-angiotensin II phosphorylation is performed, by incubation with 40 ng of purified abl-kinase and (γ-^32 P) ATP, in 50 μl of buffer containing Tris-HCl 25 mM, pH 8.0, MgCl2 10 mM and dithiothreitol 0.1 mM (kinase buffer). The reaction mixture is incubated for the indicated time at 30° C. and the reaction stopped by adding 50 μl of 5% trichloracetic acid. After a brief incubation on ice the tubes are centrifuged. The supernatants are spotted on phosphocellulose paper squares (Whatman P-81) and washed extensively in acetic acid. The radioactivity bound to dried phosphocellulose squares is measured in a liquid scintillation counter. IC50 values are calculated from triplicated determination of each experimental point. Each inhibitor is tested at concentrations ranging from […] in the presence of fixed concentrations of peptide (2 mM) and ATP (50 μM).
smiles,measurement,setting,value
CCOC(=O)C(C)Oc1ccc(C=C2C(=O)Nc3ccccc32)c2cccnc12 (centres unmarked) [2-[5-(2-oxindol-3-ylidenemethyl)quinol-8-yloxy]propionic acid ethyl ester],IC50,[1],39.5 µM
same,IC50,[2],15 µM
